According to PubChem BioAssay (NCI):
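Step 1: Grow cells in 96-well plates. Step 2: Expose to compound for 48 hours at 5 concentrations. Step 3: Interpolate endpoints linearly; if unreached, use highest concentration. TGI is the concentration that stops growth completely.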

Assays:
Assay in all cases: NCI anticancer screen, dose series, 48 h
786-0 renal = test system: 786-0 renal
A498 renal = test system: A498 renal
A549 NSCLC = test system: A549 NSCLC
ACHN renal = test system: ACHN renal
CCRF-CEM leukemia = test system: CCRF-CEM leukemia
COLO 205 colon = test system: COLO 205 colon
DMS 114 small cell lung = test system: DMS 114 small cell lung
DMS 273 small cell lung = test system: DMS 273 small cell lung
EKVX NSCLC = test system: EKVX NSCLC
HCT-116 colon = test system: HCT-116 colon
HCT-15 colon = test system: HCT-15 colon
HOP-18 NSCLC = test system: HOP-18 NSCLC
HOP-92 NSCLC = test system: HOP-92 NSCLC
HT29 colon = test system: HT29 colon
IGROV1 ovarian = test system: IGROV1 ovarian
K-562 leukemia = test system: K-562 leukemia
KM12 colon = test system: KM12 colon
KM20L2 colon = test system: KM20L2 colon
LOX IMVI melanoma = test system: LOX IMVI melanoma
LXFL 529 NSCLC = test system: LXFL 529 NSCLC
M14 melanoma = test system: M14 melanoma
M19-MEL melanoma = test system: M19-MEL melanoma
MALME-3M melanoma = test system: MALME-3M melanoma
MOLT-4 leukemia = test system: MOLT-4 leukemia
NCI-H226 lung = test system: NCI-H226 lung
NCI-H23 lung = test system: NCI-H23 lung
NCI-H460 lung = test system: NCI-H460 lung
NCI-H522 lung = test system: NCI-H522 lung
OVCAR-3 ovarian = test system: OVCAR-3 ovarian
OVCAR-4 ovarian = test system: OVCAR-4 ovarian
OVCAR-5 ovarian = test system: OVCAR-5 ovarian
OVCAR-8 ovarian = test system: OVCAR-8 ovarian
RPMI-8226 leukemia = test system: RPMI-8226 leukemia
RXF 393 renal = test system: RXF 393 renal
RXF-631 renal = test system: RXF-631 renal
SF-268 CNS = test system: SF-268 CNS
SF-295 CNS = test system: SF-295 CNS
SF-539 CNS = test system: SF-539 CNS
SK-MEL-2 melanoma = test system: SK-MEL-2 melanoma
SK-MEL-28 melanoma = test system: SK-MEL-28 melanoma
SK-MEL-5 melanoma = test system: SK-MEL-5 melanoma
SK-OV-3 ovarian = test system: SK-OV-3 ovarian
SN12C renal = test system: SN12C renal
SNB-19 CNS = test system: SNB-19 CNS
SNB-75 CNS = test system: SNB-75 CNS
SNB-78 CNS = test system: SNB-78 CNS
SW-620 colon = test system: SW-620 colon
TK-10 renal = test system: TK-10 renal
U251 CNS = test system: U251 CNS
UACC-257 melanoma = test system: UACC-257 melanoma
UACC-62 melanoma = test system: UACC-62 melanoma
UO-31 renal = test system: UO-31 renal
XF 498 CNS = test system: XF 498 CNS
CAKI-1 renal = test system: CAKI-1 renal
DLD-1 colon = test system: DLD-1 colon
HCC-2998 colon = test system: HCC-2998 colon
HL-60(TB) leukemia = test system: HL-60(TB) leukemia

CC1(C)OCC[C@@H]1[Si](C)(C)C
TGI (786-0 renal): > 100 µM | TGI (A498 renal): > 100 µM | TGI (A549 NSCLC): > 100 µM | TGI (ACHN renal): > 100 µM | TGI (CCRF-CEM leukemia): > 100 µM | TGI (COLO 205 colon): > 100 µM | TGI (DMS 114 small cell lung): > 100 µM | TGI (DMS 273 small cell lung): > 100 µM | TGI (EKVX NSCLC): > 100 µM | TGI (HCT-116 colon): > 100 µM | TGI (HCT-15 colon): > 100 µM | TGI (HOP-18 NSCLC): > 100 µM | TGI (HOP-92 NSCLC): > 100 µM | TGI (HT29 colon): > 100 µM | TGI (IGROV1 ovarian): > 100 µM | TGI (K-562 leukemia): > 100 µM | TGI (KM12 colon): > 100 µM | TGI (KM20L2 colon): > 100 µM | TGI (LOX IMVI melanoma): > 100 µM | TGI (LXFL 529 NSCLC): > 100 µM | TGI (M14 melanoma): > 100 µM | TGI (M19-MEL melanoma): > 100 µM | TGI (MALME-3M melanoma): > 100 µM | TGI (MOLT-4 leukemia): > 100 µM | TGI (NCI-H226 lung): > 100 µM | TGI (NCI-H23 lung): > 100 µM | TGI (NCI-H460 lung): > 100 µM | TGI (NCI-H522 lung): 61 µM | TGI (OVCAR-3 ovarian): > 100 µM | TGI (OVCAR-4 ovarian): > 100 µM | TGI (OVCAR-5 ovarian): > 100 µM | TGI (OVCAR-8 ovarian): > 100 µM | TGI (RPMI-8226 leukemia): > 100 µM | TGI (RXF 393 renal): 89.8 µM | TGI (RXF-631 renal): > 100 µM | TGI (SF-268 CNS): > 100 µM | TGI (SF-295 CNS): > 100 µM | TGI (SF-539 CNS): > 100 µM | TGI (SK-MEL-2 melanoma): > 100 µM | TGI (SK-MEL-28 melanoma): > 100 µM | TGI (SK-MEL-5 melanoma): > 100 µM | TGI (SK-OV-3 ovarian): > 100 µM | TGI (SN12C renal): > 100 µM | TGI (SNB-19 CNS): > 100 µM | TGI (SNB-75 CNS): > 100 µM | TGI (SNB-78 CNS): > 100 µM | TGI (SW-620 colon): > 100 µM | TGI (TK-10 renal): > 100 µM | TGI (U251 CNS): > 100 µM | TGI (UACC-257 melanoma): > 100 µM | TGI (UACC-62 melanoma): > 100 µM | TGI (UO-31 renal): > 100 µM | TGI (XF 498 CNS): > 100 µM

N#CC(C(=O)C(N)=O)c1ccccc1Cl (configuration not stated)
TGI (786-0 renal): > 100 µM | TGI (A498 renal): > 100 µM | TGI (A549 NSCLC): > 100 µM | TGI (ACHN renal): > 100 µM | TGI (CAKI-1 renal): > 100 µM | TGI (CCRF-CEM leukemia): > 100 µM | TGI (COLO 205 colon): > 100 µM | TGI (DLD-1 colon): > 100 µM | TGI (DMS 114 small cell lung): > 100 µM | TGI (DMS 273 small cell lung): > 100 µM | TGI (EKVX NSCLC): > 100 µM | TGI (HCC-2998 colon): > 100 µM | TGI (HCT-116 colon): > 100 µM | TGI (HCT-15 colon): > 100 µM | TGI (HL-60(TB) leukemia): > 100 µM | TGI (HOP-18 NSCLC): > 100 µM | TGI (HT29 colon): > 100 µM | TGI (IGROV1 ovarian): > 100 µM | TGI (K-562 leukemia): > 100 µM | TGI (KM12 colon): > 100 µM | TGI (KM20L2 colon): > 100 µM | TGI (LOX IMVI melanoma): > 100 µM | TGI (LXFL 529 NSCLC): > 100 µM | TGI (M14 melanoma): > 100 µM | TGI (M19-MEL melanoma): > 100 µM | TGI (MALME-3M melanoma): > 100 µM | TGI (MOLT-4 leukemia): > 100 µM | TGI (NCI-H226 lung): > 100 µM | TGI (NCI-H23 lung): > 100 µM | TGI (NCI-H460 lung): > 100 µM | TGI (OVCAR-3 ovarian): > 100 µM | TGI (OVCAR-4 ovarian): > 100 µM | TGI (OVCAR-5 ovarian): > 100 µM | TGI (OVCAR-8 ovarian): > 100 µM | TGI (RPMI-8226 leukemia): > 100 µM | TGI (RXF 393 renal): > 100 µM | TGI (RXF-631 renal): > 100 µM | TGI (SF-268 CNS): > 100 µM | TGI (SF-295 CNS): > 100 µM | TGI (SF-539 CNS): > 100 µM | TGI (SK-MEL-2 melanoma): > 100 µM | TGI (SK-MEL-28 melanoma): > 100 µM | TGI (SK-MEL-5 melanoma): > 100 µM | TGI (SK-OV-3 ovarian): > 100 µM | TGI (SN12C renal): > 100 µM | TGI (SNB-19 CNS): > 100 µM | TGI (SNB-75 CNS): > 100 µM | TGI (SW-620 colon): > 100 µM | TGI (TK-10 renal): > 100 µM | TGI (U251 CNS): > 100 µM | TGI (UACC-257 melanoma): > 100 µM | TGI (UACC-62 melanoma): > 100 µM | TGI (UO-31 renal): > 100 µM | TGI (XF 498 CNS): > 100 µM
